Reference: patent US20110039721A1, “METHOD FOR PREDICTION ABOUT CARCINOGENICITY OF SUBSTANCE IN RODENT” (Chemicals Evaluation and Research Institute, priority 2007, published 2011)

Legend:
[1] = system: mRNA expressed from the genes (A) to (D) in rat liver; assay: Behavior of genes (mRNA expression level, oligo-DNA microarray) in rat liver after 28-day oral administration; type: in vivo
Method in brief: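 Male F344 SPF rats, 5 weeks old, four per group, received carcinogens, non-carcinogens or solvent vehicle by oral gavage once daily for 28 days. Liver total RNA was then extracted. Changes of ≥1.5-fold or ≤1/1.5 versus vehicle control, in a consistent direction across carcinogens, counted as significant.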

rodent = conditions: in vivo; cited from earlier work
liver = conditions: in vivo; cited from earlier work

SMILES: CC(=O)Nc1ccc(C(=O)CCl)cc1 [TS072, 4-(Chloroacetyl)acetanilide]
- Behavior of gene caused by administration of chemical substance, Gene No. 154 ([1]; rat, in vivo): −
- Behavior of gene caused by administration of chemical substance, Gene No. 533 ([1]; rat, in vivo): +
- Behavior of gene caused by administration of chemical substance, Gene No. 725 ([1]; rat, in vivo): +
- Behavior of gene caused by administration of chemical substance, Gene No. 813 ([1]; rat, in vivo): −
- Behavior of gene caused by administration of chemical substance, Gene No. 893 ([1]; rat, in vivo): −
- Behavior of gene caused by administration of chemical substance, Gene No. 1119 ([1]; rat, in vivo): −
- Behavior of gene caused by administration of chemical substance, Gene No. 1131 ([1]; rat, in vivo): −
- Behavior of gene caused by administration of chemical substance, Gene No. 1163 ([1]; rat, in vivo): +
- Behavior of gene caused by administration of chemical substance, Gene No. 1334 ([1]; rat, in vivo): −
- Behavior of gene caused by administration of chemical substance, Gene No. 1494 ([1]; rat, in vivo): +
- Behavior of gene caused by administration of chemical substance, Gene No. 1562 ([1]; rat, in vivo): −
- Behavior of gene caused by administration of chemical substance, Gene No. 1741 ([1]; rat, in vivo): −
- Behavior of gene caused by administration of chemical substance, Gene No. 1993 ([1]; rat, in vivo): −
- Behavior of gene caused by administration of chemical substance, Gene No. 2026 ([1]; rat, in vivo): +
- Behavior of gene caused by administration of chemical substance, Gene No. 2045 ([1]; rat, in vivo): +
- Behavior of gene caused by administration of chemical substance, Gene No. 2203 ([1]; rat, in vivo): +
- Behavior of gene caused by administration of chemical substance, Gene No. 2494 ([1]; rat, in vivo): −
- Behavior of gene caused by administration of chemical substance, Gene No. 2546 ([1]; rat, in vivo): −
- Behavior of gene caused by administration of chemical substance, Gene No. 3776 ([1]; rat, in vivo): +
- Behavior of gene caused by administration of chemical substance, Gene No. 3929 ([1]; rat, in vivo): −
- Behavior of gene caused by administration of chemical substance, Gene No. 4095 ([1]; rat, in vivo): −
- Behavior of gene caused by administration of chemical substance, Gene No. 4218 ([1]; rat, in vivo): +
- Behavior of gene caused by administration of chemical substance, Gene No. 4846 ([1]; rat, in vivo): +
- Behavior of gene caused by administration of chemical substance, Gene No. 4973 ([1]; rat, in vivo): +
- Behavior of gene caused by administration of chemical substance, Gene No. 5600 ([1]; rat, in vivo): +
- Behavior of gene caused by administration of chemical substance, Gene No. 5634 ([1]; rat, in vivo): −
- Behavior of gene caused by administration of chemical substance, Gene No. 5726 ([1]; rat, in vivo): −
- Behavior of gene caused by administration of chemical substance, Gene No. 5878 ([1]; rat, in vivo): −
- Behavior of gene caused by administration of chemical substance, Gene No. 6026 ([1]; rat, in vivo): −
- Behavior of gene caused by administration of chemical substance, Gene No. 6182 ([1]; rat, in vivo): +
- Behavior of gene caused by administration of chemical substance, Gene No. 6303 ([1]; rat, in vivo): −
- Behavior of gene caused by administration of chemical substance, Gene No. 6620 ([1]; rat, in vivo): −
- Behavior of gene caused by administration of chemical substance, Gene No. 6742 ([1]; rat, in vivo): −
- Carcinogenicity (rodent): C−
- Liver carcinogenicity (liver): Cr−

SMILES: Nc1ccc(N=Nc2ccccc2)cc1 [TS075, 4-Aminoazobenzene]
- Behavior of gene caused by administration of chemical substance ([1]; Gene No. 154, Rn.185941, group (C)): −
- Behavior of gene caused by administration of chemical substance ([1]; Gene No. 533, Rn.106184, group (C)): −
- Behavior of gene caused by administration of chemical substance ([1]; Gene No. 725, Rn.108075, group (C)): −
- Behavior of gene caused by administration of chemical substance ([1]; Gene No. 813, Rn.201760, group (C)): −
- Behavior of gene caused by administration of chemical substance ([1]; Gene No. 893, Rn.164817, group (C)): +
- Behavior of gene caused by administration of chemical substance ([1]; Gene No. 1119, Rn.9757, group (C)): −
- Behavior of gene caused by administration of chemical substance ([1]; Gene No. 1131, Rn.144946, group (C)): −
- Behavior of gene caused by administration of chemical substance ([1]; Gene No. 1163, Rn.11766, group (C)): +
- Behavior of gene caused by administration of chemical substance ([1]; Gene No. 1334, Rn.120914, group (C)): −
- Behavior of gene caused by administration of chemical substance ([1]; Gene No. 1494, Rn.1430, group (B)): −
- Behavior of gene caused by administration of chemical substance ([1]; Gene No. 1562, Rn.14744, group (C)): −
- Behavior of gene caused by administration of chemical substance ([1]; Gene No. 1741, Rn.1647, group (C)): −
- Behavior of gene caused by administration of chemical substance ([1]; Gene No. 1993, Rn.18728, group (C)): +
- Behavior of gene caused by administration of chemical substance ([1]; Gene No. 2026, Rn.167075, group (A)): −
- Behavior of gene caused by administration of chemical substance ([1]; Gene No. 2045, Rn.19329, group (B)): −
- Behavior of gene caused by administration of chemical substance ([1]; Gene No. 2203, Rn.21240, group (B)): +
- Behavior of gene caused by administration of chemical substance ([1]; Gene No. 2494, Rn.23969, group (C)): −
- Behavior of gene caused by administration of chemical substance ([1]; Gene No. 2546, Rn.24561, group (C)): +
- Behavior of gene caused by administration of chemical substance ([1]; Gene No. 3776, Rn.43232, group (C)): −
- Behavior of gene caused by administration of chemical substance ([1]; Gene No. 3929, Rn.4620, group (C)): +
- Behavior of gene caused by administration of chemical substance ([1]; Gene No. 4095, Rn.119024, group (C)): +
- Behavior of gene caused by administration of chemical substance ([1]; Gene No. 4218, Rn.167075, group (A)): −
- Behavior of gene caused by administration of chemical substance ([1]; Gene No. 4846, Rn.144554, group (A)): −
- Behavior of gene caused by administration of chemical substance ([1]; Gene No. 4973, Rn.118529, group (C)): +
- Behavior of gene caused by administration of chemical substance ([1]; Gene No. 5600, Rn.9836, group (A)): −
- Behavior of gene caused by administration of chemical substance ([1]; Gene No. 5634, Rn.9862, group (C)): −
- Behavior of gene caused by administration of chemical substance ([1]; Gene No. 5726, Rn.9939, group (D)): −
- Behavior of gene caused by administration of chemical substance ([1]; Gene No. 5878, Rn.143213, group (C)): −
- Behavior of gene caused by administration of chemical substance ([1]; Gene No. 6026, Rn.167685, group (C)): −
- Behavior of gene caused by administration of chemical substance ([1]; Gene No. 6182, Rn.5834, group (A)): −
- Behavior of gene caused by administration of chemical substance ([1]; Gene No. 6303, Rn.123063, group (C)): −
- Behavior of gene caused by administration of chemical substance ([1]; Gene No. 6620, Rn.120914, group (C)): −
- Behavior of gene caused by administration of chemical substance ([1]; Gene No. 6742, Rn.9779, group (C)): −
- Carcinogenicity (rodent): C+
- Liver carcinogenicity (liver): Cr+
